We go through 21 compounds from patent US9266878B2, “Phosphatidylinositol 3-kinase inhibitors” (Gilead Calistoga LLC, priority 2012, dated 2016).

What all share (assay): Enzymatic activity of PI3K isoforms, TR-FRET assay (PIP3 formation)
What all share (assay type): biochemical

The target of one assay is PI3Kα (Homo sapiens (Human), UniProt P42336). A digest of the protocol: (§1)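 Heterodimeric recombinant class I PI3K; PIP3 product displaces labeled PIP3 from GRP-1 PH domain, lowering TR-FRET. Reaction 30 min at 25° C, stopped with 10 mM EDTA, 10 nM labeled-PIP3, 35 nM Eu-GRP-1. Read Ex 340 nm, Em 615/665 nm; IC50 in nM.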
A further assay concerns the target PI3Kδ (Homo sapiens (Human), UniProt O00329). To be noted: bound given in nM. Put shortly:
as §1

A further assay has as its target PI3Kβ (Homo sapiens (Human), UniProt P42338). Put shortly:
(§2)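 Recombinant heterodimeric class I PI3K enzymes were assayed by TR-FRET. PIP3 product displaces fluorescently labelled PIP3 from the GRP-1 PH domain, lowering the signal; IC50 values are given in nM.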

In a further assay the target is PI3Kγ (Homo sapiens (Human), UniProt P48736). A digest of the protocol: as §2
Chain of PI3Kγ (P48736 whole entry): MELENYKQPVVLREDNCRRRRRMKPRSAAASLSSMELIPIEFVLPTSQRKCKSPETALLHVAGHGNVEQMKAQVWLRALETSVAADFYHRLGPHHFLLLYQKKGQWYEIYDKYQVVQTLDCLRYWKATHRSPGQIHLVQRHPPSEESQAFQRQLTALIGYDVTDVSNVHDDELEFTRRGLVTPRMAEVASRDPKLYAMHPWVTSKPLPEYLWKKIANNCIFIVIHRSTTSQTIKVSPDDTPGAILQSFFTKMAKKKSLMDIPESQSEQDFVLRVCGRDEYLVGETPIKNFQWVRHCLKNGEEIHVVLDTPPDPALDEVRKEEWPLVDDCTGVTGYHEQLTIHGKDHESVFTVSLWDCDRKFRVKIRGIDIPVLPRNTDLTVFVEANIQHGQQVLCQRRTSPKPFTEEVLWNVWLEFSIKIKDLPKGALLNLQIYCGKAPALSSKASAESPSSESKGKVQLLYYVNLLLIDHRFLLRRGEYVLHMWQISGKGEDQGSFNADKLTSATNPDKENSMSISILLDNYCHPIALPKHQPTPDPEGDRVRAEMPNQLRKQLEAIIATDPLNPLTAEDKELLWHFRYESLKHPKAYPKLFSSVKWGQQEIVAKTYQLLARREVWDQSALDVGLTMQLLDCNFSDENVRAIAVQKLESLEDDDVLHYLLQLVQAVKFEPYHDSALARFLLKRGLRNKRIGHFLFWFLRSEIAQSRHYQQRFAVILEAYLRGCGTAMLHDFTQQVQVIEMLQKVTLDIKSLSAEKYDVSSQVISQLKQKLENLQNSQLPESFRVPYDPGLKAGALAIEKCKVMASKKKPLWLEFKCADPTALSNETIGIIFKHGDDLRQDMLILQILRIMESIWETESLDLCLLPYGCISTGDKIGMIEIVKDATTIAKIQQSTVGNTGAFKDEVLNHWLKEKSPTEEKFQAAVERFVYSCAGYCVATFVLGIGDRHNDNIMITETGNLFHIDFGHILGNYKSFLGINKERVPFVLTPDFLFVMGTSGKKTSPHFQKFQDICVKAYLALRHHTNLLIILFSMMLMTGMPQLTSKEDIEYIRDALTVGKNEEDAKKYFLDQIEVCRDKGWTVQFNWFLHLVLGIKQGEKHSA
Chain of PI3Kγ (Q8WYR1 whole entry partner): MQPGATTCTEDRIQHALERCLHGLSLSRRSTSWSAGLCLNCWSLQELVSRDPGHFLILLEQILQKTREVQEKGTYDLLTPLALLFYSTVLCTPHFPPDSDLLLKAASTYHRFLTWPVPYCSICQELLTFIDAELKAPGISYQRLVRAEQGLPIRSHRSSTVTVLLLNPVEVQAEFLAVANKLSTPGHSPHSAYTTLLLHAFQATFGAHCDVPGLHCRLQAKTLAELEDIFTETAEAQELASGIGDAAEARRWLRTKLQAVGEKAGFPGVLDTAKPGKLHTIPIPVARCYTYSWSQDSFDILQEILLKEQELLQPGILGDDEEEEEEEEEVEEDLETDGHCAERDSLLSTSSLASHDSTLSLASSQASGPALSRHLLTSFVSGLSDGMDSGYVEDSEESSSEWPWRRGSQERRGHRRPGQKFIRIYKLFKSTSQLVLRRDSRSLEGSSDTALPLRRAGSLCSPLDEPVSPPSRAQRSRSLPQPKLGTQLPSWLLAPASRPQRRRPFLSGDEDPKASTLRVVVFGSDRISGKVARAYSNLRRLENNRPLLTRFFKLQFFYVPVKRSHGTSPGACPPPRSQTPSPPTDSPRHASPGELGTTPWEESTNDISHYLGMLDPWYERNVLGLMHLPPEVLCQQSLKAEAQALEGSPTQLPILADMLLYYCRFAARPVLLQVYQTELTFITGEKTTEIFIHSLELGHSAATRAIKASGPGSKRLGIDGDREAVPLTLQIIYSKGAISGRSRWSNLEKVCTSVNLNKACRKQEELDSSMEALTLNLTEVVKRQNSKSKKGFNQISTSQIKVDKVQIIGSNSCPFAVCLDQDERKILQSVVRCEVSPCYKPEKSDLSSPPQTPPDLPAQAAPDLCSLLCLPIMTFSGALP

Chain of PI3Kδ (O00329 whole entry): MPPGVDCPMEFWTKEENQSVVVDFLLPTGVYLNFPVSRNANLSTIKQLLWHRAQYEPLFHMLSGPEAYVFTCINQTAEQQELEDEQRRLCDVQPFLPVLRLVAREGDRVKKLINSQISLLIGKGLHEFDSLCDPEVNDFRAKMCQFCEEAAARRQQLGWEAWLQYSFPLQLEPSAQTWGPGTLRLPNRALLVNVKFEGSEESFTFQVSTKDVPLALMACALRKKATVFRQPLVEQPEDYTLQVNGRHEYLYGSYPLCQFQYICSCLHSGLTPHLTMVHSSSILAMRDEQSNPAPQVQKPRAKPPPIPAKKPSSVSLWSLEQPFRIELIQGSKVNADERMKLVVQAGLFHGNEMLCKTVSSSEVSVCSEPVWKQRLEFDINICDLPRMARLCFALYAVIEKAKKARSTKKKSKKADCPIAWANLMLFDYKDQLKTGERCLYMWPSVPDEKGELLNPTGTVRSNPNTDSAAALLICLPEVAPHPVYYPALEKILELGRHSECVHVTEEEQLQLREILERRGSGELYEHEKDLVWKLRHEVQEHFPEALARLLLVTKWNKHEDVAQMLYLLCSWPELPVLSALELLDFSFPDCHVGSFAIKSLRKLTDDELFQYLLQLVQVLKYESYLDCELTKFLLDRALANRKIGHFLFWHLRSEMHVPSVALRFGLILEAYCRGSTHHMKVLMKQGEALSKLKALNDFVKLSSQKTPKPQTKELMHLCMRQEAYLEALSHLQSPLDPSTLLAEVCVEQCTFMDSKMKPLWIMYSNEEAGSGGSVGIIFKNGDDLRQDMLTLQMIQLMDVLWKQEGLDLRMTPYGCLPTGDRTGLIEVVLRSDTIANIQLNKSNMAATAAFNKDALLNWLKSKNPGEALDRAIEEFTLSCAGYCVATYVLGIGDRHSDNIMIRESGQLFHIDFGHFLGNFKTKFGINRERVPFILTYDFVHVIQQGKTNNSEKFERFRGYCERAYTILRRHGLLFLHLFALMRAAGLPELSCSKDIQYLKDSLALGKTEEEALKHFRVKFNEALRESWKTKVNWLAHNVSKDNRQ
Chain of PI3Kδ (P27986 whole entry partner): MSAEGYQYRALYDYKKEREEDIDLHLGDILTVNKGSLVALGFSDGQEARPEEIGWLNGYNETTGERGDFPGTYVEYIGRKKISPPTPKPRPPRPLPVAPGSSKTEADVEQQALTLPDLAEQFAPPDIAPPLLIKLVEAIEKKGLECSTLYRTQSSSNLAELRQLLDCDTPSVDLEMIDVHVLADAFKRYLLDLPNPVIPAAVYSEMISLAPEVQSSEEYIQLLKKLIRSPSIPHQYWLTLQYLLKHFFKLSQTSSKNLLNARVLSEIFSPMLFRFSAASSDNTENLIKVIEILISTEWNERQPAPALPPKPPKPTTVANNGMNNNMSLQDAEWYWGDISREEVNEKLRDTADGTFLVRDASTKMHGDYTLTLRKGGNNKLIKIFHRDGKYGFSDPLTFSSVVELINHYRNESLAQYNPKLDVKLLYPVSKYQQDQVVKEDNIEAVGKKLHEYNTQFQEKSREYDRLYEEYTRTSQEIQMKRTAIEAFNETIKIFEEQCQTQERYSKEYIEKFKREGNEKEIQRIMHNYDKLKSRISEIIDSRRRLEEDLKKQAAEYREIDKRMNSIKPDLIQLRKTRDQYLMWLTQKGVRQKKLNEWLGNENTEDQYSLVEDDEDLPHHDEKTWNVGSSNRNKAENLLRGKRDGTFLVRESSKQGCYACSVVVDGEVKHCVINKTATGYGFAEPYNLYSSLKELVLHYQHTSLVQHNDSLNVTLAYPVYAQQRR
Chain of PI3Kβ (P42338 whole entry, the tested form may be a part): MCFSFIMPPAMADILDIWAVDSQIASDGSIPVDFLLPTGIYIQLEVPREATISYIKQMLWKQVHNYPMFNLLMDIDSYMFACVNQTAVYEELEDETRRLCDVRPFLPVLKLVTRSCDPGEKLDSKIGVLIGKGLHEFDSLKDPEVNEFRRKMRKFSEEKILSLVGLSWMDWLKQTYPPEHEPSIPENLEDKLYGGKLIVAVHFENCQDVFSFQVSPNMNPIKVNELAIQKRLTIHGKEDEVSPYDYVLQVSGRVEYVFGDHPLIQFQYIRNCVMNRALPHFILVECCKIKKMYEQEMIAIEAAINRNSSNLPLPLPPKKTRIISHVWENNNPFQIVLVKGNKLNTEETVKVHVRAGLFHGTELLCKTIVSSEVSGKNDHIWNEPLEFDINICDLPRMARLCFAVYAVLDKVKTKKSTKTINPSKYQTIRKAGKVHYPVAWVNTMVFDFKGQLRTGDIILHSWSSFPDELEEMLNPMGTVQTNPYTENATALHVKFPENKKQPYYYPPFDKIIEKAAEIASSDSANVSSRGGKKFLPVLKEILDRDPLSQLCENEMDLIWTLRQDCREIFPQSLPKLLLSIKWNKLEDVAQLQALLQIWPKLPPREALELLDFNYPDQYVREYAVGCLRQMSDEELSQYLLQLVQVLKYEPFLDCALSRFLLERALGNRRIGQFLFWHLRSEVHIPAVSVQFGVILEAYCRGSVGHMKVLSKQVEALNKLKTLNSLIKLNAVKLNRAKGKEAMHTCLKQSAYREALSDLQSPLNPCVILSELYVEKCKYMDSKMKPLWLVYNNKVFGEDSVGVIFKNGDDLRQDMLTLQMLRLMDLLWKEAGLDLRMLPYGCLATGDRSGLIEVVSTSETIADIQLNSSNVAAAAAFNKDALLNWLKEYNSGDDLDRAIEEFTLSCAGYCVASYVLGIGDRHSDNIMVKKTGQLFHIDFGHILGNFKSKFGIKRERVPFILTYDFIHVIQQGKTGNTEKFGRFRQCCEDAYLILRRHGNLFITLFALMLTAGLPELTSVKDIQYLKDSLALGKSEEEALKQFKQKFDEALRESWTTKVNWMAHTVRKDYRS
Chain of PI3Kβ (P27986 whole entry partner, the tested form may be a part): as the sequence (P27986 whole entry partner) above

For the compound `C[C@H](Nc1ncnc(N)c1C#Cc1ccc(F)cn1)c1nc2ccc(F)cc2c(=O)n1-c1ccccc1` [Compound 90a, (S)-2-(1-((6-amino-5-((5-fluoropyridin-2-yl)ethynyl)pyrimidin-4-yl)amino)ethyl)-6-fluoro-3-phenylquinazolin-4(3H)-one], the IC50 (usually the point on the concentration scale where inhibition reaches its midpoint) on PI3Kα (bound given in uM) is more than 1 µM; at PI3Kδ, less than 100 nM; against PI3Kβ (bound given in uM) it was more than 1 µM; against PI3Kγ (bound given in uM), more than 1 µM.
In the case of `C[C@H](Nc1ncnc(N)c1C#Cc1ncc(F)cc1F)c1nc2cccc(Cl)c2c(=O)n1-c1ccccc1` [Compound 82a, (S)-2-(1-((6-amino-5-((3,5-difluoropyridin-2-yl)ethynyl)pyrimidin-4-yl)amino)ethyl)-5-chloro-3-phenylquinazolin-4(3H)-one], the IC50 was more than 1 µM on PI3Kα (bound given in uM), less than 100 nM against PI3Kδ, more than 1 µM at PI3Kβ (bound given in uM) and more than 1 µM on PI3Kγ (bound given in uM).
Consider `C[C@H](Nc1ncnc(N)c1C#Cc1cccc(CN)n1)c1nc2cccc(Cl)c2c(=O)n1-c1ccccc1` [Compound 159a, (S)-2-(1-((6-amino-5-((6-(aminomethyl)pyridin-2-yl)ethynyl)pyrimidin-4-yl)amino)ethyl)-5-chloro-3-phenylquinazolin-4(3H)-one], for which the IC50 against PI3Kα (bound given in uM) is more than 1 µM; against PI3Kδ it was less than 100 nM; at PI3Kβ (bound given in uM), more than 1 µM; at PI3Kγ (bound given in uM), more than 1 µM.
Regarding `C[C@H](Nc1ncnc(N)c1C#Cc1ccc(F)cn1)c1nc2cccc(Cl)c2c(=O)n1-c1cccc(S(C)(=O)=O)c1` [Compound 58a, (S)-2-(1-((6-amino-5-((5-fluoropyridin-2-yl)ethynyl)pyrimidin-4-yl)amino)ethyl)-5-chloro-3-(3-(methylsulfonyl)phenyl)quinazolin-4(3H)-one], the IC50 against PI3Kα (bound given in uM), at PI3Kβ (bound given in uM) and against PI3Kγ (bound given in uM) was more than 1 µM in each case.
As to `C[C@H](Nc1ncnc(N)c1C#Cc1cnccn1)c1nc2cccc(F)c2c(=O)n1-c1cc(F)cc(F)c1` [Compound 87a, (S)-2-(1-((6-amino-5-(pyrazin-2-ylethynyl)pyrimidin-4-yl)amino)ethyl)-3-(3,5-difluorophenyl)-5-fluoroquinazolin-4(3H)-one], the IC50 against PI3Kα (bound given in uM) is more than 1 µM; against PI3Kδ it was less than 100 nM; on PI3Kβ (bound given in uM), more than 1 µM; on PI3Kγ (bound given in uM), more than 1 µM.
As for `C[C@H](Nc1ncnc(N)c1C#Cc1ccc(F)cn1)c1nc2c(F)ccc(F)c2c(=O)n1-c1cc(F)cc(F)c1` [Compound 1a, (S)-2-(1-((6-amino-5-((5-fluoropyridin-2-yl)ethynyl)pyrimidin-4-yl)amino)ethyl)-3-(3,5-difluorophenyl)-5,8-difluoroquinazolin-4(3H)-one], the IC50 is more than 1 µM against PI3Kα (bound given in uM), less than 100 nM against PI3Kδ, more than 1 µM on PI3Kβ (bound given in uM) and more than 1 µM against PI3Kγ (bound given in uM).
Regarding `C[C@H](Nc1ncnc(N)c1C#CC1CCCCC1)c1nc2cccc(Cl)c2c(=O)n1-c1ccccc1` [Compound 145a, (S)-2-(1-((6-amino-5-(cyclohexylethynyl)pyrimidin-4-yl)amino)ethyl)-5-chloro-3-phenylquinazolin-4(3H)-one], the IC50 on PI3Kα (bound given in uM) was more than 1 µM; against PI3Kδ, less than 100 nM; against PI3Kβ (bound given in uM), more than 1 µM; against PI3Kγ (bound given in uM) it was more than 1 µM.
On to `CC(=O)c1cccc(C#Cc2c(N)ncnc2N[C@@H](C)c2nc3cccc(Cl)c3c(=O)n2-c2ccccc2)c1` [Compound 161a, (S)-2-(1-((5-((3-acetylphenyl)ethynyl)-6-aminopyrimidin-4-yl)amino)ethyl)-5-chloro-3-phenylquinazolin-4(3H)-one], for which the 50% inhibitory concentration (IC50) against PI3Kα (bound given in nM) was less than 0.1 µM; against PI3Kδ it was less than 100 nM; on PI3Kβ (bound given in nM) it was less than 0.1 µM; against PI3Kγ (bound given in nM), less than 0.1 µM.
On to `Cc1cccc2nc([C@H](C)Nc3ncnc(N)c3C#Cc3ccc(F)cn3)n(-c3cccc(CN(C)S(C)(=O)=O)c3)c(=O)c12` [Compound 128a, (S)—N-(3-(2-(1-((6-amino-5-((5-fluoropyridin-2-yl)ethynyl)pyrimidin-4-yl)amino)ethyl)-5-methyl-4-oxoquinazolin-3(4H)-yl)benzyl)-N-methylmethanesulfonamide], for which the IC50 against PI3Kα (bound given in uM) is more than 1 µM; on PI3Kδ, less than 100 nM; against PI3Kβ (bound given in uM) it was more than 1 µM; against PI3Kγ (bound given in uM), more than 1 µM.
As to `C[C@H](Nc1ncnc(N)c1C#Cc1ccc(F)cn1)c1nc2cccc(Cl)c2c(=O)n1-c1cccc(CNS(C)(=O)=O)c1` [Compound 130a, (S)—N-(3-(2-(1-((6-amino-5-((5-fluoropyridin-2-yl)ethynyl)pyrimidin-4-yl)amino)ethyl)-5-chloro-4-oxoquinazolin-3(4H)-yl)benzyl)methanesulfonamide], the IC50 against PI3Kα (bound given in uM) was more than 1 µM; on PI3Kδ it was less than 100 nM; on PI3Kβ (bound given in uM), more than 1 µM; on PI3Kγ (bound given in uM), more than 1 µM.
For the compound `C[C@H](Nc1ncnc(N)c1C#Cc1ccc2nc(N)sc2c1)c1nc2cccc(Cl)c2c(=O)n1-c1ccccc1` [Compound 46a, (S)-2-(1-(6-amino-5-((2-aminobenzo [d]thiazol-6-yl)ethynyl)pyrimidin-4-ylamino)ethyl)-5-chloro-3-phenylquinazolin-4(3H)-one], the values for the IC50 against PI3Kδ, at PI3Kβ (bound given in nM) and against PI3Kγ (bound given in nM) were less than 100 nM, less than 0.1 µM and less than 0.1 µM, respectively.
For `C[C@H](Nc1ncnc(N)c1C#Cc1cccnn1)c1nc2cccc(Cl)c2c(=O)n1-c1ccccc1` [Compound 14a, (S)-2-(1-(6-amino-5-(pyridazin-3-ylethynyl)pyrimidin-4-ylamino)ethyl)-5-chloro-3-phenylquinazolin-4(3H)-one], the concentration for half-maximal inhibition (IC50) against PI3Kα (bound given in uM), against PI3Kβ (bound given in uM) and on PI3Kγ (bound given in uM) was more than 1 µM each time.
Consider `C[C@H](Nc1ncnc(N)c1C#Cc1ccccc1)c1nc2cccc(Cl)c2c(=O)n1-c1ccccc1` [Compound 51a, (S)-2-(1-(6-amino-5-(phenylethynyl)pyrimidin-4-ylamino)ethyl)-5-chloro-3-phenylquinazolin-4(3H)-one], for which the figures for the IC50 against PI3Kδ, against PI3Kβ (bound given in nM) and at PI3Kγ (bound given in nM) were less than 100 nM, less than 0.1 µM and less than 0.1 µM, respectively.
For `CC(C)OC(=O)c1ccc(C#Cc2c(N)ncnc2N[C@@H](C)c2nc3cccc(Cl)c3c(=O)n2-c2ccccc2)nc1` [Compound 137a, (S)-isopropyl 6-((4-amino-6-((1-(5-chloro-4-oxo-3-phenyl-3,4-dihydroquinazolin-2-yl)ethyl)amino)pyrimidin-5-yl)ethynyl)nicotinate], the IC50 against PI3Kα (bound given in uM), on PI3Kβ (bound given in uM) and at PI3Kγ (bound given in uM) was more than 1 µM in each case.
For `C[C@H](Nc1ncnc(N)c1C#Cc1ccc(OC(F)(F)F)cc1)c1nc2cccc(Cl)c2c(=O)n1-c1cc(F)cc(F)c1` [Compound 26a, (S)-2-(1-(6-amino-5-((4-(trifluoromethoxy)phenyl)ethynyl)pyrimidin-4-ylamino)ethyl)-5-chloro-3-(3,5-difluorophenyl)quinazolin-4(3H)-one], the IC50 against PI3Kα (bound given in uM), on PI3Kβ (bound given in uM) and at PI3Kγ (bound given in uM) was more than 1 µM throughout.
As for `C[C@H](Nc1ncnc(N)c1C#Cc1cc(C(=O)O)ccn1)c1nc2cccc(Cl)c2c(=O)n1-c1ccccc1` [Compound 160a, (S)-2-((4-amino-6-((1-(5-chloro-4-oxo-3-phenyl-3,4-dihydroquinazolin-2-yl)ethyl)amino)pyrimidin-5-yl)ethynyl)isonicotinic acid], the figures for the IC50 against PI3Kδ, at PI3Kβ (bound given in nM) and against PI3Kγ (bound given in uM) were less than 100 nM, less than 0.1 µM and more than 1 µM, respectively.
For the compound `Nc1ncnc(N2CCCC[C@H]2c2nc3cccc(Cl)c3c(=O)n2-c2ccccc2)c1C#Cc1ccccn1` [Compound 36a, (S)-2-(1-(6-amino-5-(pyridin-2-ylethynyl)pyrimidin-4-yl)piperidin-2-yl)-5-chloro-3-phenylquinazolin-4(3H)-one], the IC50 on PI3Kα (bound given in uM), against PI3Kβ (bound given in uM) and at PI3Kγ (bound given in uM) was more than 1 µM in each case.
As to `C[C@H](Nc1ncnc(N)c1C#Cc1cc(CO)ccn1)c1nc2cccc(Cl)c2c(=O)n1-c1ccccc1` [Compound 154a, (S)-2-(1-((6-amino-5-((4-(hydroxymethyl)pyridin-2-yl)ethynyl)pyrimidin-4-yl)amino)ethyl)-5-chloro-3-phenylquinazolin-4(3H)-one], the IC50 at PI3Kδ was less than 100 nM; against PI3Kβ (bound given in nM), less than 0.1 µM; against PI3Kγ (bound given in nM), less than 0.1 µM.
For `C[C@H](Nc1ncnc(N)c1C#Cc1ccc(F)cn1)c1nc2cccc(Cl)c2c(=O)n1-c1cccc(C(C)(C)C)c1` [Compound 59a, (S)-2-(1-((6-amino-5-((5-fluoropyridin-2-yl)ethynyl)pyrimidin-4-yl)amino)ethyl)-3-(3-(tert-butyl)phenyl)-5-chloroquinazolin-4(3H)-one], the IC50 against PI3Kα (bound given in uM), at PI3Kβ (bound given in uM) and against PI3Kγ (bound given in uM) was more than 1 µM throughout.
For the compound `C[C@H](Nc1ncnc(N)c1C#Cc1cn[nH]c1)c1nc2cccc(Cl)c2c(=O)n1-c1ccccc1` [Compound 49a, (S)-2-(1-(5-((1H-pyrazol-4-yl)ethynyl)-6-aminopyrimidin-4-ylamino)ethyl)-5-chloro-3-phenylquinazolin-4(3H)-one], the results for the half-maximal inhibitory concentration (IC50) on PI3Kδ, on PI3Kβ (bound given in nM) and against PI3Kγ (bound given in nM) were less than 100 nM, less than 0.1 µM and less than 0.1 µM, respectively.
With `C[C@H](Nc1ncnc(N)c1C#Cc1ccccn1)c1nc2cccc(Cl)c2c(=O)n1-c1cccc(C(N)=O)c1` [Compound 38a, (S)-3-(2-(1-(6-amino-5-(pyridin-2-ylethynyl)pyrimidin-4-ylamino)ethyl)-5-chloro-4-oxoquinazolin-3(4H)-yl)benzamide], the values for the IC50 against PI3Kδ, at PI3Kβ (bound given in nM) and on PI3Kγ (bound given in uM) were less than 100 nM, less than 0.1 µM and more than 1 µM, respectively.
